# In publication PMC10254852, “Design, Synthesis and Anticancer Evaluation of Nitroimidazole Radiosensitisers” (Molecules, 2023):
# Like-named read-outs stand apart in the source and are kept apart here.
# Columns and labels:
# [1] = Plasma pharmacokinetics after single i.v. dose; format: in vivo; conditions: female, mouse, iv, NIH-III mice, 2.2 mmol/kg i.v.
# Protocol: Specific pathogen-free six- to eight-week-old female NIH-III mice, bred in the Vernon Jansen Unit, University of Auckland, were used for animal experiments. Animals had ad libitum access to food and water and were maintained in microisolator cages on a 12 h light/dark cycle. All treatments were administered by i.v. injection at a dose of 2.2 mmol/kg and injection volume of 10 mL/kg. Compounds 2, 34 and 38 were administered as solutions in saline containing 1% DMSO or for 9–12 as solutions in saline containing 2 molar equivalents of NaHCO3. Control animals received an i.v. injection of saline at 10 mL/kg. All animal experiments were conducted under the auspices of the University of Auckland Animal Ethics Committee (approval 1781).
# Female NIH-III mice were injected with a single i.v. dose of 34 at its MAD of 2.2 mmol/kg in saline. Blood was collected by cardiac puncture under terminal CO2 anaesthesia at 5, 10, 30, 60 and 120 min after dosing. Blood was immediately centrifuged (3000× g, 3 min), and plasma was stored at −80 °C for HPLC. Tumour samples were prepared and analysed by HPLC using standard protocols established in our laboratory.
# HCT116/54C tumours = assay: Tumour radiosensitisation: ex vivo clonogenic assay; format: in vivo, NIH-III mice
# UT-SCC-74B tumours = assay: as above; format: in vivo, NIH-III mice
# UT-SCC-74B cells = assay: In vitro cytotoxicity, 4 h exposure oxic/anoxic, 5-day regrowth, sulforhodamine B; format: cell-based, human; conditions: for IC50: Homo sapiens, 4 h exposure, mean ± SEM
# HCT116/54C cells = assay: as above; format: cell-based, human; conditions: for IC50: Homo sapiens, 4 h exposure, mean ± SEM, n = 3–4
# [2] = 2.2 mmol/kg i.v. 5 min prior to 10 Gy radiation, surviving fraction after radiation/surviving fraction after drug + radiation
# [3] = 2.2 mmol/kg i.v. + 10 Gy, one-way ANOVA
# [4] = 2.2 mmol/kg i.v., 10 Gy, mechanism experiment (Figure 3)
# [5] = drug alone 2.2 mmol/kg i.v., relative to untreated tumours
structure (smiles),measurement,setting,value
O=[N+]([O-])c1nccn1CS(=O)(=O)NCCN1CCOCC1 [Compound 34],AUC,[1],960 µM·h
same,Cmax,[1],1530 µM
same,half-life,[1],1.52 h
same,Sensitisation Ratio,HCT116/54C tumours; [2],14.9
same,enhancement of tumour killing of radiotherapy (RAD vs drug + RAD),HCT116/54C tumours; [3],significantly enhanced the tumour killing of radiotherapy
same,"SR, drug given 5 min before radiation",HCT116/54C tumours; [4],9.76
same,"SR, drug given 20 min after radiation",HCT116/54C tumours; [4],1.49
same,single agent cell kill,HCT116/54C tumours; [5],62.3 ± 7.9%
same,Sensitisation Ratio,UT-SCC-74B tumours; [2],13.8
same,enhancement of tumour cell killing by radiotherapy (RAD vs drug + RAD),UT-SCC-74B tumours; [3],significantly enhanced tumour cell killing by radiotherapy
same,single agent cell kill,UT-SCC-74B tumours; [5],68.4 ± 1.2%
same,IC50,"UT-SCC-74B cells; anoxic, n = 3–4, read-out: IC50 Anoxic",0.51 ± 0.08 mM
same,IC50,"UT-SCC-74B cells; oxic, n = 3–4, read-out: IC50 Oxic",12.6 ± 1.8 mM
same,HCR,UT-SCC-74B cells; IC50(oxic)/IC50(anoxic),24.5
same,HCR,"HCT116/54C cells; HCT116/54C, IC50(oxic)/IC50(anoxic)",38.8
same,IC50,"HCT116/54C cells; HCT116/54C, anoxic, read-out: IC50 Anoxic",0.17 ± 0.01 mM
same,IC50,"HCT116/54C cells; HCT116/54C, oxic, read-out: IC50 Oxic",6.4 ± 1 mM
same,HCR values in vitro,HCT116/54C cells; range across the cell line panel,23–38
